This is an account of results in US4883808A, “Condensation products of cyclic diketones and ascorbic acid as immunomodulatory agents” (American Biotechnology Company, priority 1988, dated 1989).

One data set relates to adenovirus type 2. Nature of the data set: antiviral test of Sidewell and Huffman, adenovirus type 2 in HEp-2 cells. The format is cell-based. As to conditions: HEp-2 target cell. As for the experimental part: The virus rating (VR) of Compound A of this invention when tested in accordance with the method of Sidewell and Huffman (Appl. Microbiol. 22:795-801, 1971) against adenovirus type 2 utilizing HEp-2 as the target cell was greater than 0.2. […] The minimum toxic concentration (MTC) was greater than 320 μg/ml.

Another data set concerns feline leukemia virus. Description: antiviral test of Sidewell and Huffman, feline leukemia virus in 81C cells. The format is cell-based, feline leukemia virus (81C feline kidney cell). The settings on record: 81C cell line. As for the experimental part:
The virus rating (VR) of Compound A of this invention when tested in accordance with the method of […] and Huffman (Appl. Microbiol. 22:795-801, 1971) against adenovirus type 2 utilizing HEp-2 as the target cell was greater than 0.2. […] The minimum toxic concentration (MTC) was greater than 320 μg/ml. The same compound was also tested against feline leukemia virus by the […] and Huffman procedure using the […] cell line as the target. The […] cell is a feline kidney cell transformed with a murine leukemia virus (ras gene +) with the following results. The therapeutic index of the compound which is a measure of the compounds ability to protect the cell against the virus without adversely affecting cell growth was 22.

Data set [1] deals with T- and B-lymphocytes isolated from mouse spleens. Nature of the data set: lymphocyte blastogenesis assay (mouse spleen lymphocytes, C-14 methyl thymidine uptake). The format is cell-based. Also on record: LPS 5.0 (lymphocyte blastogenesis) / RPMI (lymphocyte blastogenesis): unit not given here. The settings on record: for LPS 5.0 (lymphocyte blastogenesis) / % CHANGE (LPS): LPS 5.0 MG/KG; for % CHANGE (LPS) / % CHANGE (PHA): vs 0 mg/kg; for PHA 10.0 (lymphocyte blastogenesis) / % CHANGE (PHA): PHA 10.0 UG/KG; for RPMI (lymphocyte blastogenesis): media, no mitogen. An excerpt:
One of these tests is the lymphocyte blastogenesis assay which measures the ability of the compound under test to affect DNA synthesis and mitosis of T- and B- lymphocytes isolated from mouse spleens.
Mitogens are substances which stimulate DNA synthesis and mitosis. The mitogens used in these studies were phytohemaglutinin (PHA) which is isolated from the red kidney bean and a lipopolysacharide isolated from Salmonella tythimurium (LPS).
The lymphocyte blastogenesis test is a method to assess the ability of immunocompetent T- or B-cells to respond to mitogens or a specific antigen. It may be performed on lymphocytes obtained from mice treated with immunostimulators in vivo or the entire assay can be performed in vitro. The assay as described below uses minimal doses of polyclonal mitogens to induce blastogenesis (proliferation measured by DNA synthesis), in order to be able to assess the phenomena of amplification.
The lymphocyte blastogenesis test is carried out as follows:
1. Sacrifice two mice/experimental group by cervical dislocation.
2. Immerse mice in a mild disinfectant solution (Povadyne).
3. Remove spleens and place in a sterile 6 well plate containing 5 ml/well of RPMI-1640.
4. Make a single cell suspension by mincing spleens with a sterile toothed forcep.
5. Place cell suspension in a sterile centrifuge tube and allow large clumps to settle for 10 minutes.
6. Remove single cell suspension by pipetting supernatant into another sterile centrifuge tube.
7. Centrifuge cell suspension for 10 mins. at 1100 RPM in GLC-2B.
8. Aseptically remove supernatant and discard.
9. Resuspend cell button in 5 mls of RPMI-1640, and centrifuge. Wash cells in this manner two more times.
10. Resuspend cells in 5 mls of RPMI-1640 containing 10-15% Human AB heat-inactivated (Pel-Freeze, Rogers, AR or BioBee, Boston, MA).
11. Perform viable cell count using 0.25% trypan blue exclusion dye made in physiological isotonic saline. Non-viable cells stain blue.
12. Adjust viable cell concentration to […] in RPMI-1640 containing human AB sera.
13. Aliquot in sextuplicate wells of a 96 well sterile round bottom tissue culture plate with 0.1 ml/well of the various cell suspensions to be tested.
14. Add to above replicate sextuplicate cells selected quantities of mitogen.
15. Include in the experiment a control plate which contains the same cell groups as above, but receive a 0.1 ml of media instead of mitogen.
16. Humidify plate by filling outside wells of plate with media.
17. Incubate plates at […] with 5% CO-2 for 48 hours.
18. After 48 hours all wells receive 0.025 mls of a 0.4 microcurie/ml solution of C-14 methyl thymidine and incubate at 37 C, 5% CO-2 for 18 hours.
19. The cells are harvested using a Brandel M-12 Cell Harvestor (Brandel, Rockfille, MD) onto filter paper discs using phosphate buffered saline at physiological osmolarity. (285-320 mos).
20. The filter paper disks are placed into Packard mini-scintillation vials and allowed to dry for 18 hours.
21. Once dried, the vials are filled with 2 mls of a scintillation cocktail containing 4 liters of scintillation grade toluene, 16.0 g of 2,5-diphenyloxazole (PPO) and 0.4 g of 1,4-Bis (2-(5-Phenyloxazoly) benzene (POPOP).
22. The vials are counted in a LKB 1212 Rackbeta (LKB Instruments, Gaithersburg, MD) Liquid scintillation counter for two minutes/vial.

As to “<3,3'>-hemiketal-<3,6>-ketal of 2-(1',3'-diketo-4'-cyclopentyl)-2-hydroxy-3-keto-4-dihydroxyethylbutyrolactone [Compound A]”, the “minimum toxic concentration (MTC)” value with adenovirus type 2 was “greater than 320 μg/ml”. In the data set on adenovirus type 2 (adenovirus type 2), the “ID50 (concentration that causes 50% reduction in virus replication)” value came to 505.19 µg/mL and the “virus rating (VR)” value was “greater than 0.2”. For the same substance, in the data set on feline leukemia virus, the “MTC (minimum toxic concentration)” value was 100. In addition, in the data set with feline leukemia virus (feline leukemia virus), the “ID50 (concentration in μg./ml that causes 50% reduction in virus replication)” value stood at 4.5 µg/mL. For the same substance, in the data set with feline leukemia virus (feline leukemia virus, control 0.98), the “VR (virus rating)” value was determined as 1.1.
Turning to “<3,4'>-hemiketal-<3,6>-ketal of 2-(1',4'-diketo-3'-cyclohexyl)-2-hydroxy-3-keto-4-dihydroxyethylbutyrolactone [Compound B]”, in data set [1] (12.5 mg/kg), the “LPS 5.0 (lymphocyte blastogenesis)” value worked out at 7195 ± 90, the “% CHANGE (LPS)” value is recorded as “+2.2%”, the “PHA 10.0 (lymphocyte blastogenesis)” value was 7126 ± 1104 and the “% CHANGE (PHA)” value was -3.8%. Besides, in data set [1] (12.5 mg/kg), the “RPMI (lymphocyte blastogenesis)” value is on record as 605 ± 117. Also, in data set [1] (25 mg/kg), the “LPS 5.0 (lymphocyte blastogenesis)” value turned out to be 8580 ± 507, the “% CHANGE (LPS)” value is recorded as “+21.9%”, the “PHA 10.0 (lymphocyte blastogenesis)” value was found to be 7563 ± 2053 and the “% CHANGE (PHA)” value is “+2.1%”. Further, the “RPMI (lymphocyte blastogenesis)” value in data set [1] (25 mg/kg) came out at 1392 ± 247. For the same substance, in data set [1] (50 mg/kg), the “LPS 5.0 (lymphocyte blastogenesis)” value is on record as 6823 ± 1305, the “PHA 10.0 (lymphocyte blastogenesis)” value was 10218 ± 2630, the “% CHANGE (PHA)” value is on record as “+37.9%” and the “RPMI (lymphocyte blastogenesis)” value stood at 1041 ± 687. In addition, in data set [1] (100 mg/kg), the “LPS 5.0 (lymphocyte blastogenesis)” value is 8423 ± 351, the “% CHANGE (LPS)” value is recorded as “+19.6%”, the “PHA 10.0 (lymphocyte blastogenesis)” value came out at 9258 ± 1391 and the “% CHANGE (PHA)” value is “+24.9%”. Besides, in data set [1] (100 mg/kg), the “RPMI (lymphocyte blastogenesis)” value amounted to 705 ± 314. Further, in data set [1] (200 mg/kg), the “LPS 5.0 (lymphocyte blastogenesis)” value stood at 8025 ± 1670, the “% CHANGE (LPS)” value is “+14%”, the “PHA 10.0 (lymphocyte blastogenesis)” value was determined as 8111 ± 896 and the “% CHANGE (PHA)” value is recorded as “+9.4%”. For the same substance, the “RPMI (lymphocyte blastogenesis)” value in data set [1] (200 mg/kg) is on record as 660 ± 354.
